# Legend:
# [1] = tested on: guinea pigs; experiment: blood pressure-lowering effectiveness on narcotised guinea pigs, intravenous; assay type: in vivo, guinea pig; details: for blood pressure previously: before administration
# [2] = acute toxicity, intravenous; assay type: in vivo; details: mouse, in vivo, iv; read-out: Evaluated LD50-range
# [3] = tested on: female NMRI-albino mice; experiment: acute toxicity, intravenous; assay type: in vivo; details: mouse, in vivo
# [4] = tested on: isolated rat aorta preparations; experiment: spasmolytic effectiveness, potassium chloride-induced contractions; details: read-out: ED50 potassium chloride spasm
# [5] = tested on: mongrel cats; experiment: heart-circulation effectiveness on narcotised mongrel cats, intraduodenal administration; details: 5 mg/kg intraduodenal
# Method: The animals were narcotised with a mixture of chloralose-urethane (1.2 g./kg. urethane+40 mg./kg. chloralose administered i.p.). They breathed spontaneously through a tracheal canula. The A. carotis sinistra was used in order to place a catheter tip monometer in the left chamber of the heart. The V. jugularis served for injection purposes. Via the A. femoralis dextra, a catheter was inserted up into the Aorta descendans and connected to a pressure recorder (Statham P 23Db). The heart frequency was recorded with a pulse frequency measurer (Firm Hugo Sachs Elektronik) from the left ventricular pressure signal. A duodenal loop was exposed by laparotomy. The substances to be tested were injected directly into the lumen.
# [6] = printed on the 0 min line (= change 0 to 10 min)
# [7] = printed on the 10 min line (= change 0 to 30 min)
# [8] = printed on the 30 min line (= change 0 to 60 min)
# [9] = printed on the 60 min line (= change 0 to 120 min)
smiles,measurement,setting,value
"Nc1ncnc2c1ncn2[C@H]1CO[C@H]2[C@@H]1OC[C@@H]2O[N+](=O)[O-] [1c/2c, 5-(9-Adenyl)-5-desoxy-1.4;3.6-dianhydro-L-iditol 2-nitrate]",blood pressure afterwards,[1]; 0.25 mg/kg i.v.,50.50 ± 2.33 mm. Hg
same,blood pressure Δ,[1]; 0.25 mg/kg i.v.,-17.75 mm. Hg
same,blood pressure previously,[1]; 0.25 mg/kg i.v.,68.25 ± 2.50 mm. Hg
same,blood pressure afterwards,[1]; 1.00 mg/kg i.v.,41.50 ± 3.97 mm. Hg
same,blood pressure Δ,[1]; 1.00 mg/kg i.v.,-28.00 mm. Hg
same,blood pressure previously,[1]; 1.00 mg/kg i.v.,69.50 ± 2.90 mm. Hg
same,blood pressure afterwards,[1]; 2.50 mg/kg i.v.,38.75 ± 2.66 mm. Hg
same,blood pressure Δ,[1]; 2.50 mg/kg i.v.,-31.25 mm. Hg
same,blood pressure previously,[1]; 2.50 mg/kg i.v.,70.00 ± 2.27 mm. Hg
same,"blood pressure-lowering effectiveness, comparison",[1]; i.v.,even more effective than ISDN
same,LD50 at 24 h,[2],> 200 mg/kg
same,Frequency of death,[3],0/6
same,IC50,[4],2800 nM
same,blood pressure,[5]; 0 min,124.2 ± 8.3 mm. Hg
same,dp/dt,[5]; 0 min,7220 ± 611 mm sec
same,heart frequency,[5]; 0 min,171.6 ± 6.2 min⁻¹
same,blood pressure,[5]; 10 min,108.6 ± 8.5 mm. Hg
same,dp/dt,[5]; 10 min,7500 ± 522 mm sec
same,heart frequency,[5]; 10 min,180.4 ± 4.3 min⁻¹
same,blood pressure,[5]; 30 min,107.8 ± 8.4 mm. Hg
same,dp/dt,[5]; 30 min,6960 ± 564 mm sec
same,heart frequency,[5]; 30 min,177.2 ± 5.4 min⁻¹
same,blood pressure,[5]; 60 min,106.6 ± 7.8 mm. Hg
same,dp/dt,[5]; 60 min,7100 ± 721 mm sec
same,heart frequency,[5]; 60 min,177.6 ± 5.1 min⁻¹
same,blood pressure,[5]; 120 min,106.2 ± 5.6 mm. Hg
same,dp/dt,[5]; 120 min,7000 ± 1026 mm sec
same,heart frequency,[5]; 120 min,178.8 ± 4.4 min⁻¹
same,blood pressure Δ,[5]; [6],-15.6 mm. Hg
same,dp/dt Δ,[5]; [6],+280 mm sec
same,blood pressure Δ,[5]; [7],-16.4 mm. Hg
same,dp/dt Δ,[5]; [7],-260 mm sec
same,blood pressure Δ,[5]; [8],-17.6 mm. Hg
same,dp/dt Δ,[5]; [8],-120 mm sec
same,blood pressure Δ,[5]; [9],-18.0 mm. Hg
same,dp/dt Δ,[5]; [9],-220 mm sec

# Source: patent US4479951A, “1.4;3.6-Dianhydrohexitol nitrates substituted by purine bases, processes for their preparation and pharmaceutical compositions” (Dr. Willmar Schwabe GmbH & Co., priority 1980, dated 1984)
